# Where two headings read alike, the source gives them in different places.
# Legend:
# [1] = system: rats with experimental myocardial infarction
# Method: (§1) The animals of 230 to 258 g were subjected to ether narcosis for 1-3 minutes, Next, by the thoracotomy method there was achieved access to the anterior branch of the coronary artery and its lumen was closed by means of an electrode. The wound was closed by atraumatic sutures. […] The rats were divided in two groups.
# (§2) The animals were being observed for 24 hours (every one in a separate cage). […] The second group of 10 rats (5 of each group) were killed after 5 days and the third group of 10 animals (5 of each group)—after 7 days. In all the rats there was performed postmortem macroscopic examination of hearts, pleura and abdominal cavity organs. The tissues were taken from the infarct focus for microscopic examination. They were retained in formalin and stained conventionally with H-E. Blood for biochemical tests was taken by heart puncture of 3 ml volume.
# [2] = system: rats with experimental myocardial infarction; details: for ALT / AST / CPK / LDH1, 2: blood, 5 mg/kg per 24 hours intramuscularly, n = 5
# Method: as §1, §2
# In the biochemical trials there were estimated levels of creatinine kinase (CPK), lactate dehydrogenase (LDH 1-2), aspargine transaminase (AST) and alanine transaminase (ALT) before the infarct and on 1, 5 and 7 day after the infarct (Apparatus “Immunochemistry System”, Beckman Coulter, “DSL”, “Multiscan”, Labsystem; Glycomat DSS, Drew).
# [3] = system: rats with alloxan diabetes
# From the text: The results were presented below in Table 2.
# The results of the trials were presented below in Table 3.
# [4] = system: rats with STZ diabetes; experiment: Rats with diabetes induced by streptozotocin (STZ); format: in vivo; details: for glycemia / level of malonic dialdehyde (MDA), oxidation stress marker: in comparison to the group of the STZ untreated rats
# [5] = system: psychotic and neurological patients (multiple sclerosis, anxiety, depression); experiment: Clinical trials in nervous system and psychic diseases; format: in vivo, human
# From the text: In the psychotic patients in combination with the conventional treatment and in the neurological patients as monotherapy.
# [6] = system: people after myocardial infarction; details: 15 patients, versus control group
# From the text: II-Na salt was applied also for treatment of people after myocardial infarction.
# [7] = system: patients with acute and chronic pancreatitis
# [8] = system: rats with experimentally developed muscles ischemia
# [9] = system: patients suffering from diabetes of type I and type II
# [10] = system: patients with inflammatory diseases of head, maxillofacial area and neck; details: above 50 patients, various forms and doses
# [11] = system: model animals with experimentally-induced sepsis; details: 0% for untreated animals
# [12] = background statement; cited from earlier work
# [13] = blood, alloxan diabetes rats treated with II-Na salt (Table 2)
# [14] = blood, alloxan diabetes rats treated with II-Na salt (Table 3)
structure (smiles),measurement,setting,value
"Nc1cccc2c(=O)[nH][nH]c(=O)c12.[Na] [II-Na salt, 5-amino-2,3-dihydrophthalazine-1,4-dione sodium salt]",polymorphic-nucleated leucocytes in the demarcation zone,[1]; fifth day,not observed
same,postoperative wound healed by first intension (per primam),"[1]; fifth day, 4 rats without II-Na salt",all 5 rats
same,leucocytes migration,[1]; first 24 hours after the infarct,not observed
same,fibrosis (Weinert's staining),"[1]; fourteenth day, 5 mg/kg",only few traits of fibrosis
same,polymorphic-nucleated leucocytes,"[1]; fourteenth day, 5 mg/kg",not observed
same,regeneration processes of damaged tissues,[1]; overall conclusion,positive influence on regeneration processes of damaged tissues
same,capillary vessels in the infarct zone,[1]; seventh day,normal of the sinusoidal type
same,ALT,[2]; fifth day after infarct,0.271 ± 0.059 µmol/L
same,AST,[2]; fifth day after infarct,0.204 ± 0.03 µmol/L
same,CPK,[2]; fifth day after infarct,405.28 ± 27.84 µmol/L
same,"LDH1, 2",[2]; fifth day after infarct,187.94 ± 34.37 µmol/L
same,ALT,[2]; first day after infarct,0.178 ± 0.028 µmol/L
same,AST,[2]; first day after infarct,0.254 ± 0.034 µmol/L
same,CPK,[2]; first day after infarct,322.56 ± 43.79 µmol/L
same,"LDH1, 2",[2]; first day after infarct,248.84 ± 41.10 µmol/L
same,ALT,[2]; seventh day after infarct,0.24 ± 0.024 µmol/L
same,AST,[2]; seventh day after infarct,0.225 ± 0.024 µmol/L
same,CPK,[2]; seventh day after infarct,291.35 ± 18.9 µmol/L
same,"LDH1, 2",[2]; seventh day after infarct,175.5 ± 25.89 µmol/L
same,normalization of the tested blood parameters,[2]; conclusion on Table 1,quicker normalization of all the tested parameters
same,IGF-1,"[3]; blood, alloxan diabetes rats treated with II-Na salt",699.13 ± 81.4 ng/mL
same,IGF-2,[3]; [13],37.9 ± 1.65 ng/mL
same,Insulin,[3]; [13],0.724 ± 0.08 mg/mL
same,IGF-2,[3]; [14],37.9 ± 1.65 ng/mL
same,Insulin,[3]; [14],7.24e-07 ± 8e-08 mg/mL
same,Glucose,"[3]; blood, alloxan diabetes rats treated with II-Na salt, 5 mg per kg per 24 hours for a month, sodium salt",4.16 ± 0.56 mmol/L
same,Glycated hemoglobin (Hb A1C),"[3]; blood, alloxan diabetes rats treated with II-Na salt, sodium salt",9.05 ± 0.58 %
same,IGF-1/IGF-2,"[3]; ratio, alloxan diabetes rats treated with II-Na salt",16.2 ± 2.4
same,glycemia,[4],62%
same,"level of malonic dialdehyde (MDA), oxidation stress marker",[4],48.7%
same,"level of glutathione (GSH), oxidation stress marker",[4]; result in words,does not change
same,lymphocytic profile and cytokines,[5]; II-Na salt 100 mg per 24 hours intramuscularly for 30 days,normalization of the lymphocytic profile and cytokines
same,disease symptoms,"[5]; human, in vivo",disease symptoms reduction
same,preventive use in the period of remission,"[5]; spring and autumn, 100 mg/d, 10 injections every day and 10 every second day",long-time remission
same,pain discomfort in the chest,[6]; 100/200 mg per 24 hours intramuscular for seven days plus conventional therapy,quicker reduction of pain discomfort in the chest
same,"blood biochemical parameters (CPK, LDH, ALT, AST) and x-ray image",[6],quicker normalization of blood biochemical parameters
same,starting formation of pseudocysts,"[7]; 2 patients, after treatment",disappeared
same,septic complications,"[7]; 25 patients, conventional therapy plus II-Na salt",one patient
same,normalization of the laboratory tests results,"[7]; after a month, of 25 patients",twenty two patients
same,patients who could come back to nutrition per os,"[7]; after three weeks of treatment, of 25 patients",twenty patients
same,insulin level,[7]; after two weeks of treatment,raised nearly to normal
same,reduction of the glucose level,[7]; after two weeks of treatment,two times
same,reduction Hb1AC,"[7]; after two weeks of treatment, fifteen patients with reduced insulin level",in six patients to the normal range
same,insulin administration,"[7]; after two weeks of treatment, from up to 40 IU/day",10 IU/day
same,pain disappeared in all patients (time),[7]; control group: above two weeks,seven days
same,pain symptoms reduced in all the patients (time),[7]; day of treatment,second day
same,effects observed in the pancreas,"[7]; research (rats, 5 mg per kg per 24 hours for a month) and clinical trials",inhibition of inflammatory and necrotic processes in the pancreas
same,Number of capill. in 1 mm^3,[8]; Ischaemia-12 days,152.3 ± 12.7 in 1 mm^3
same,Number of capill. in 1 mm^3,[8]; Ischaemia-29 days,236.4 ± 16.9 in 1 mm^3
same,glycemia level,"[9]; after a week of treatment, from 7.5 mmol/l, 100 mg intramuscular injection",5.1 mmol/L
same,insulin dose,"[9]; after a week of treatment, reduced from 45 IU",15 IU per day
same,cholesterol level,[9]; patients with diabetes of type II,slight reduction
same,effect on inflammatory state,[10],"quicker tissues regeneration, inhibition of apoptosis and quicker symptoms subsidence or remission maintenance"
same,viability of rats,[11],80%
"Nn1[nH]c(=O)c2ccccc2c1=O.[Na] [compound III, 2-amino-1,2,3,4-tetrahydrophthalazine-1,4-dione sodium salt]",solubility in water,[12],easily soluble in water
"CN(CCOc1ccc(CC2SC(=O)NC2=O)cc1)c1ccccn1 (centres unmarked) [Rosiglytazone, reference compound]",glycemia,[4],55%
same,"level of malonic dialdehyde (MDA), oxidation stress marker",[4],54%
same,"level of glutathione (GSH), oxidation stress marker",[4]; in comparison to the healthy rats,127%
"Nc1cccc2c(=O)[nH][nH]c(=O)c12 [luminol, 5-Amino-2,3-dihydrophthalazine-1,4-dione]",solubility in water,[12],poorly soluble in water

# Reference: patent US8536171B2, “Method for obtaining 5-amino 2,3-dihydrophthalazine-1,4-dione alkali metal salts and their use in medicine” (Abidopharma PL SP. Z.O.O., priority 2009, dated 2013)
